The source of these data is article PMC10700596 (Nature Communications, 2023).

T1 sequence (P35408 whole entry, the tested form may be a part): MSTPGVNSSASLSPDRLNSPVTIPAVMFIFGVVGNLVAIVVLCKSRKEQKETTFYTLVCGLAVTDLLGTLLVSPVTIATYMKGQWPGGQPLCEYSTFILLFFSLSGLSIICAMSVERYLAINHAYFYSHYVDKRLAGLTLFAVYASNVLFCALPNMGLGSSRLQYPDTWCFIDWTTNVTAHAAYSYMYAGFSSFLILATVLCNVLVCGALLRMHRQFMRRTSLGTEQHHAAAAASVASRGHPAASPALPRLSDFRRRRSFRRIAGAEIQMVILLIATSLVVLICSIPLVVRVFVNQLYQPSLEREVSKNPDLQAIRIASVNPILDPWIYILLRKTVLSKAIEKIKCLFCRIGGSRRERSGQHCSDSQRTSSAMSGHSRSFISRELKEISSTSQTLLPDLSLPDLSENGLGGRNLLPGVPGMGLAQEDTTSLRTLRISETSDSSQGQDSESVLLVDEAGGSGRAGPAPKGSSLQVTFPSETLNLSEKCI

One assay addresses T1, EP4R (Homo sapiens, UniProt P35408).
T1 construct: Tango fusion cassette (only 'tango' is printed); expressed in transfected cells; host or cells: HTLA cells (tTA-dependent luciferase reporter, β-arrestin2-TEV fusion)
Kind of assay: biochemical. The format is binding. Particulars: 10 µM compound vs 10 nM 3H-PGE2.
For the compound `O=C(O)[C@H]1C[C@@H](C(=O)N(Cc2ccsc2)c2ccccc2)C1` [Compound 31, OC(=O)[C@H]1C[C@H](C1)C(=O)N(CC=2C=CSC2)C=3C=CC=CC3], the “% displacement of 3HPGE2 at 10 µM” value is on record as -9.4%.
For `O=C(O)[C@H]1C[C@@H](C(=O)N(Cc2ccsc2)c2ccccc2)C1` [Compound 33, OC(=O)[C@H]1C[C@H](C1)C(=O)N(CC=2C=CSC2)C=3C=CC=CC3], the “% displacement of 3HPGE2 at 10 µM” value was -8.1%.

Staying with this assay, now noted: […], read-out: % displacement of 3HPGE2 at 10 µM, 10 µM compound vs 10 nM 3H-PGE2.
Take `CC(CN(C(=O)c1cc2c(C(F)F)nn(C)c2s1)C1CC1)C(=O)O` (centres unmarked) [Compound 24, CC(CN(C1CC1)C(=O)C2=CC=3C(=NN(C)C3S2)C(F)F)C(=O)O]: the inhibition at 10 µM is -10.7%.
The same measure, in the same setting: as for `COC(C(=O)N(C1CC1)C(C)C(=O)O)c1cnn(C)c1` (centres unmarked) [Compound 25, COC(C(=O)N(C(C)C(=O)O)C1CC1)C=2C=NN(C)C2], the figure is -10.6%.
The same measure, in the same setting: the figure for `O=C(O)c1cc2c(s1)CCCN(C(=O)C1CC13CCc1ccccc13)C2` (centres unmarked) [Compound 26, OC(=O)C1=CC=2CN(CCCC2S1)C(=O)C3CC43CCC=5C=CC=CC54] is -10.6%; for `O=C(O)c1cc(NS(=O)(=O)c2cnc3ccsc3c2)ccc1O` [Compound 27, OC(=O)C=1C=C(NS(=O)(=O)C=2C=NC=3C=CSC3C2)C=CC1O] it is -10.4%; for `O=C(NC1CCCC1C(=O)O)C(Sc1ccc(F)cc1)c1ccccc1` (centres unmarked) [Compound 28, OC(=O)C1CCCC1NC(=O)C(SC=2C=CC(F)=CC2)C=3C=CC=CC3] it is -10.3%.
Still for that read-out and setting: as for `O=C(O)C(NS(=O)(=O)CCc1cccc(Cl)c1)C(O)c1ccccc1` (centres unmarked) [Compound 29, OC(C(NS(=O)(=O)CCC=1C=CC=C(Cl)C1)C(=O)O)C=2C=CC=CC2], the figure is -10.2%; as for `O=C(O)c1ccc(C2CCCN2S(=O)(=O)c2ccccc2-c2ccno2)s1` (centres unmarked) [Compound 30, OC(=O)C1=CC=C(S1)C2CCCN2S(=O)(=O)C=3C=CC=CC3C4=CC=NO4], -10.1%.
On to `O=C(Nc1cccc(-n2nn[nH]c2=O)c1)C1(c2ccccn2)CC1` [Compound 32, O=C(NC=1C=CC=C(C1)N2N=NNC2=O)C3(CC3)C=4C=CC=CN4], for which the inhibition at 10 µM was -8.5%.
Same read-out and setting: the figure for `CC(NC(=O)C1CC2(CC(C(=O)O)C2)C1)c1ccc(C(F)(F)F)s1` (centres unmarked) [Compound 34, CC(NC(=O)C1CC2(CC(C2)C(=O)O)C1)C3=CC=C(S3)C(F)(F)F] is -6.1%; for `CC(CN(Cc1ccccc1)C(=O)COc1ccc(Cl)c2cccnc12)C(=O)O` (centres unmarked) [Compound 35, CC(CN(CC=1C=CC=CC1)C(=O)COC=2C=CC(Cl)=C3C=CC=NC23)C(=O)O] it is -5.8%.
With `CN(C(=O)CSc1nnc(S)s1)c1ccc2ccccc2c1` [Compound 36, CN(C(=O)CSC1=NN=C(S)S1)C=2C=CC=3C=CC=CC3C2], the inhibition at 10 µM was -5.8%.
Same read-out and setting: as for `Cc1ccc(CN(Cc2ccco2)C(=O)CSc2nnc(S)s2)s1` [Compound 37, CC1=CC=C(CN(CC2=CC=CO2)C(=O)CSC3=NN=C(S)S3)S1], the figure is -5.2%; as for `CC1(C(=O)O)CC(NS(=O)(=O)c2cc3cc(Cl)ccc3s2)CCO1` (centres unmarked) [Compound 38, CC1(CC(CCO1)NS(=O)(=O)C2=CC=3C=C(Cl)C=CC3S2)C(=O)O], -5.2%.
For `O=C(O)CSc1nc2cc(Cl)ccc2n1Cc1ccccc1` [Compound 39, OC(=O)CSC1=NC=2C=C(Cl)C=CC2N1CC=3C=CC=CC3], the inhibition at 10 µM was -4.9%.
On the same count and under the same terms, as for `CN(C(=O)C1CCCC1Cc1ccccc1)[C@H]1C[C@@H](C(=O)O)C1` (some centres unmarked) [Compound 40, CN([C@H]1C[C@H](C1)C(=O)O)C(=O)C2CCCC2CC=3C=CC=CC3], the figure is -4%; as for `O=C(NCc1ccc(C(F)F)cc1)NC[C@H]1CC[C@H](C(=O)O)CC1` [Compound 41, OC(=O)[C@H]1CC[C@H](CNC(=O)NCC=2C=CC(=CC2)C(F)F)CC1], -3.4%.
Still for that read-out and setting: the figure for `O=C(O)Cc1ccc(C=C2C(=O)N3CCCc4cccc2c43)cc1` [Compound 42, OC(=O)CC=1C=CC(C=C2C(=O)N3CCCC=4C=CC=C2C34)=CC1] is -3.2%; for `Cc1nn(CC(F)(F)F)c(C)c1CC(=O)N(C1CC1)C(C)C(=O)O` (centres unmarked) [Compound 43, CC(N(C1CC1)C(=O)CC=2C(C)=NN(CC(F)(F)F)C2C)C(=O)O] it is -2.6%; for `CN(C(=O)c1cc(N2CCCC2=O)cc(C(F)(F)F)c1)c1nnn[nH]1` [Compound 44, CN(C(=O)C=1C=C(C=C(C1)C(F)(F)F)N2CCCC2=O)C3=NN=NN3] it is -2.6%.
In the case of `Cc1cccc(C2(C(=O)NC3CCSC4(C3)CC(C(=O)O)C4)CC2)c1` (centres unmarked) [Compound 45, CC=1C=CC=C(C1)C2(CC2)C(=O)NC3CCSC4(CC(C4)C(=O)O)C3], the inhibition at 10 µM is -1.8%.
Same read-out and setting: as for `CN(C(=O)c1nc(C2CC2)n(-c2ccccc2Cl)n1)c1nnn[nH]1` [Compound 46, CN(C(=O)C=1N=C(C2CC2)N(N1)C=3C=CC=CC3Cl)C4=NN=NN4], the figure is -1.5%; as for `Cc1cccc2sc(N(C)CC(C)c3nnn[nH]3)nc12` (centres unmarked) [Compound 47, CC(CN(C)C1=NC=2C(C)=CC=CC2S1)C3=NN=NN3], -1.1%.
Still for that read-out and setting: the figure for `Cn1nc(-c2ccccc2)cc1CNC(=O)NC1CCC(C(=O)O)CC1` (centres unmarked) [Compound 48, CN1N=C(C=C1CNC(=O)NC2CCC(CC2)C(=O)O)C=3C=CC=CC3] is -0.1%; for `CC(c1cn(-c2ccccc2)nn1)N1CCN(C(=O)C(=O)O)CC1` (centres unmarked) [Compound 49, CC(N1CCN(CC1)C(=O)C(=O)O)C2=CN(N=N2)C=3C=CC=CC3] it is 0.8%.
On the same count and under the same terms, the figure for `CC(c1nc(-c2cccc(C(F)(F)F)c2)no1)S(=O)(=O)c1nnc[nH]1` (centres unmarked) [Compound 50, CC(C1=NC(=NO1)C=2C=CC=C(C2)C(F)(F)F)S(=O)(=O)C3=NN=CN3] is 0.9%.
For the compound `O=C(O)Cc1ccc(NC(=O)c2cncc(-c3ccccc3)c2)cc1` [Compound 51, OC(=O)CC=1C=CC(NC(=O)C=2C=NC=C(C2)C=3C=CC=CC3)=CC1], the inhibition at 10 µM amounted to 1%.
On the same count and under the same terms, the figure for `COc1ccccc1CN(Cc1cccs1)C(=O)Cc1cccc(C(=O)O)c1` [Compound 52, COC=1C=CC=CC1CN(CC2=CC=CS2)C(=O)CC=3C=CC=C(C3)C(=O)O] is 1.2%; for `O=C(O)c1cc(NS(=O)(=O)c2ccc(Br)cc2F)ccc1O` [Compound 53, OC(=O)C=1C=C(NS(=O)(=O)C=2C=CC(Br)=CC2F)C=CC1O] it is 2.8%; for `Cc1cc(C)cc(C2(C(=O)NC(C)c3ncc(C(=O)O)s3)CC2)c1` (centres unmarked) [Compound 54, CC(NC(=O)C1(CC1)C=2C=C(C)C=C(C)C2)C3=NC=C(S3)C(=O)O] it is 3.6%.
Same read-out and setting: as for `O=C(O)CCC(Cc1ccccc1)NS(=O)(=O)C=Cc1ccccc1Cl` (centres unmarked) [Compound 55, OC(=O)CCC(CC=1C=CC=CC1)NS(=O)(=O)C=CC=2C=CC=CC2Cl], the figure is 7.6%; as for `O=C(O)c1ccc(-c2ccc(C=C3CSc4ccc(F)cc4C3=O)o2)cc1O` [Compound 56, OC(=O)C=1C=CC(=CC1O)C2=CC=C(C=C3CSC=4C=CC(F)=CC4C3=O)O2], 7.9%; as for `O=C(O)C1CC2(CC(NS(=O)(=O)C=Cc3ccc(F)cc3)CCS2)C1` (centres unmarked) [Compound 57, OC(=O)C1CC2(C1)CC(CCS2)NS(=O)(=O)C=CC=3C=CC(F)=CC3], 9%.
On the same count and under the same terms, as for `CC(Sc1ccccc1Cl)C(=O)N1CCCC(Cc2nnn[nH]2)C1` (centres unmarked) [Compound 58, CC(SC=1C=CC=CC1Cl)C(=O)N2CCCC(CC3=NN=NN3)C2], the figure is 10.8%.
